Laboratory results published in patent publication US4556660A, “N-(Bicyclic heterocyclyl)-4-piperidinamines” (Janssen Pharmaceutica N.V., priority 1983, dated 1985).

How the values were obtained:
[1] = system: compound 48/80-induced cyanosis, lesions in the glandular area of the stomach and abnormal gastric distension; conditions: rats injected with compound 48/80; cited from earlier work
[2] = system: compound 48/80-induced lethality; assay: Protection of rats from compound 48/80-induced lethality; format: in vivo, Male rats of an inbred Wistar strain; conditions: Rattus norvegicus, 4 h, read-out: compound 48/80 lethality test rats-ED50
[3] = system: serotonin; compound 48/80-induced gastric lesions; assay: Antagonistic activity on the effects of serotonin in the gastric lesion test (lesions induced by compound 48/80); format: in vivo, Male rats of a Wistar inbred strain; conditions: Rattus norvegicus, po; read-out: gastric lesion test ED50

SMILES	prevention of cyanosis of ears and extremities, lesions in the glandular area of the stomach and abnormal gastric distension [1]	ED50 [2] [mg/kg]	ED50 [3] [mg/kg]
CC[C@@H](CO)NC(=O)[C@@H]1C=C2c3cccc4c3c(cn4C)C[C@H]2N(C)C1 [methysergide]	prevent completely		
NC(=O)C1(N2CCCCC2)CCN(CCCC(=O)c2ccc(F)cc2)CC1 [pipamperone]	prevent completely		
CN1CCC(=C2c3ccccc3C=Cc3ccccc32)CC1 [cyproheptadine]	prevent completely		
CN(C)CCCSc1ccccc1NC(=O)/C=C/c1ccccc1 [cinanserin]	prevent completely		
CN1C[C@H](CNC(=O)OCc2ccccc2)C[C@@H]2c3cccc4c3c(cn4C)C[C@H]21 [metergoline]	prevent completely		
CN1CCN2c3ccccc3Cc3ccccc3C2C1 (stereo not drawn) [mianserin]	prevent completely		
O=C(CCCN1CCC2(CC1)C(=O)NCN2c1ccccc1)c1ccc(F)cc1 [spiperone]	prevent completely		
Cc1cc(=O)[nH]c(NCCN2CCC(Nc3nc4ccccc4n3Cc3ccc(F)cc3)CC2)n1 [Compound 90]		0.16	0.63
Nc1nc(NCCN2CCC(Nc3nc4ccccc4n3Cc3ccc(F)cc3)CC2)ccc1[N+](=O)[O-] [Compound 63, N^6-[2-[4-[[1-[(4-fluorophenyl)methyl]1H-benzimidazol-2-yl]amino]-1-piperidinyl]ethyl]-3-nitro-2,6-pyridinediamine]		0.31	2.5
Fc1ccc(Cn2c(NC3CCN(CCNC(=S)Nc4cccnc4)CC3)nc3ccccc32)cc1 [Compound 104, N-[2-[4-[[1-[(4-fluorophenyl)methyl]-1H-benzimidazol-2-yl]amino]-1-piperidinyl]ethyl]-N'-(3-pyridinyl)thiourea]		0.63	0.63
CN1CCC(=C2c3ccccc3CCc3sccc32)CC1 [pizotifen]	prevent completely		
Fc1ccc(Cn2c(NC3CCN(CCNc4ccc(Cl)nn4)CC3)nc3ccccc32)cc1 [Compound 37]		0.08	1.25
NC(=O)c1cccnc1NCCN1CCC(Nc2nc3ccccc3n2Cc2ccc(F)cc2)CC1 [Compound 36]		0.08	0.16
